Converted amounts (≈) assume the structure as drawn. The source made the active and inactive calls. No cut-off for these calls is given here.
Columns and labels:
[1] = target: Cholinesterase (Homo sapiens, UniProt P06276); assay: Inhibition of BuChE (unknown origin)
[2] = target: T1, Acetylcholinesterase (Homo sapiens, UniProt P22303); assay: Inhibition of AChE (unknown origin) by Ellman's method
[3] = Antioxidant activity assessed as DPPH radical scavenging activity; format: functional
[4] = target: T1, Acetylcholinesterase; assay: Mixed inhibition of AChE (unknown origin)
[5] = Toxicity in male Wistar rat assessed as haematocrit level at 10 mg/kg, po (reference value: 39.01 +/- 1.12 %); format: organism-based; conditions: in vivo
[6] = Toxicity in male Wistar rat assessed as ALP level at 10 mg/kg, po (reference value: 137.18 +/- 7.04 U/L); format: organism-based; conditions: in vivo
[7] = Toxicity in male Wistar rat assessed as histological change in renal parenchyma at 10 mg/kg, po by H and E staining based analysis; format: organism-based; conditions: in vivo
[8] = Toxicity in male Wistar rat assessed as AST level at 10 mg/kg, po (reference value: 78.16 +/- 9.37 U/L); format: organism-based; conditions: in vivo
[9] = Toxicity in male Wistar rat assessed as urea level at 10 mg/kg, po (reference value: 29.89 +/- 1.84 mg/dL); format: organism-based; conditions: in vivo
[10] = Chronic toxicity in male Wistar rat assessed as negative side effects at 10 mg/kg, po measured after 1 month; format: organism-based; conditions: in vivo, 730 h, time 1 months
[11] = Toxicity in male Wistar rat assessed as decrease in proliferation of Kupffer cells at 10 mg/kg, po by H and E staining based analysis; format: organism-based; conditions: in vivo
[12] = Toxicity in male Wistar rat assessed as RDW-CV level at 10 mg/kg, po (reference value: 16.93 +/- 1.69 %); format: organism-based; conditions: in vivo
[13] = Chronic toxicity in male Wistar rat assessed as drug tolerance at 10 mg/kg, po measured after 1 month; format: organism-based; conditions: in vivo, 730 h, time 1 months
[14] = Toxicity in male Wistar rat assessed as histopathological change in kidney at 10 mg/kg, po by H and E staining based analysis; format: organism-based; conditions: in vivo
[15] = Toxicity in male Wistar rat assessed as MCH level at 10 mg/kg, po (reference value: 18.50 +/- 1.52 pg); format: organism-based; conditions: in vivo
[16] = Toxicity in male Wistar rat assessed as MPV level at 10 mg/kg, po (reference value: 7.01 +/- 0.28 fL); format: organism-based; conditions: in vivo
[17] = Toxicity in male Wistar rat assessed as RBC level measured per million cells at 10 mg/kg, po (reference value: 6.96 +/- 0.45 /cm); format: organism-based; conditions: in vivo
[18] = Toxicity in male Wistar rat assessed as HB level at 10 mg/kg, po (reference value: 13.11 +/- 0.48 g/dL); format: organism-based; conditions: in vivo
[19] = Toxicity in male Wistar rat assessed as creatinine level at 10 mg/kg, po (reference value: 0.68 +/- 0.1 mg/dL); format: organism-based; conditions: in vivo
[20] = Toxicity in male Wistar rat assessed as ALT level at 10 mg/kg, po (reference value: 42.18 +/- 3.35 U/L); format: organism-based; conditions: in vivo
[21] = Toxicity in male Wistar rat assessed as total bilirubin level at 10 mg/kg, po (reference value: 0.68 +/- 0.11 mg/dL); format: organism-based; conditions: in vivo
[22] = Toxicity in male Wistar rat assessed as WBC level at 10 mg/kg, po (reference value: 4.60 +/- 0.61 10^3/cmm); format: organism-based; conditions: in vivo
[23] = Toxicity in male Wistar rat assessed as albumin level at 10 mg/kg, po (reference value: […]); format: organism-based; conditions: in vivo
[24] = Toxicity in male Wistar rat assessed as MCV level at 10 mg/kg, po (reference value: 59.92 +/- 2.2 fL); format: organism-based; conditions: in vivo
[25] = Toxicity in male Wistar rat assessed as MCHC level at 10 mg/kg, po (reference value: 32.52 +/- 2.48 g/dL); format: organism-based; conditions: in vivo

Cholinesterase, sequence (P06276 whole entry): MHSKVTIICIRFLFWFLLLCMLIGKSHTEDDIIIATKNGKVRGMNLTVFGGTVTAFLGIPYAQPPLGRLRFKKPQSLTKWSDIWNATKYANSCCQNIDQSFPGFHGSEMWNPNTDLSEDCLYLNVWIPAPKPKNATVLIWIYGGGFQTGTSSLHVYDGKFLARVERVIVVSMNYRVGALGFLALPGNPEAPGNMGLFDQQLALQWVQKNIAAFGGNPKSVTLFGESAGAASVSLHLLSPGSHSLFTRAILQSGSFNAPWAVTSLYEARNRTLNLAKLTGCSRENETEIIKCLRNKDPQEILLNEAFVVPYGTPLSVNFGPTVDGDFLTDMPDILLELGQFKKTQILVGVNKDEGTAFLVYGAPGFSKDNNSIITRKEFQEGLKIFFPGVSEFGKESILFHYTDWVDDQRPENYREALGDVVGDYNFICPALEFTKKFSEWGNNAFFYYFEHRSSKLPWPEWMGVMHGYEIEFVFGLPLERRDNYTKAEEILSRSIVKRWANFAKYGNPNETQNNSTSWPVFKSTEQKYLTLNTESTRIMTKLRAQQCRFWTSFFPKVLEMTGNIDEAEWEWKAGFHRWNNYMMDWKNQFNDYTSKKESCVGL
T1 sequence (P22303 whole entry): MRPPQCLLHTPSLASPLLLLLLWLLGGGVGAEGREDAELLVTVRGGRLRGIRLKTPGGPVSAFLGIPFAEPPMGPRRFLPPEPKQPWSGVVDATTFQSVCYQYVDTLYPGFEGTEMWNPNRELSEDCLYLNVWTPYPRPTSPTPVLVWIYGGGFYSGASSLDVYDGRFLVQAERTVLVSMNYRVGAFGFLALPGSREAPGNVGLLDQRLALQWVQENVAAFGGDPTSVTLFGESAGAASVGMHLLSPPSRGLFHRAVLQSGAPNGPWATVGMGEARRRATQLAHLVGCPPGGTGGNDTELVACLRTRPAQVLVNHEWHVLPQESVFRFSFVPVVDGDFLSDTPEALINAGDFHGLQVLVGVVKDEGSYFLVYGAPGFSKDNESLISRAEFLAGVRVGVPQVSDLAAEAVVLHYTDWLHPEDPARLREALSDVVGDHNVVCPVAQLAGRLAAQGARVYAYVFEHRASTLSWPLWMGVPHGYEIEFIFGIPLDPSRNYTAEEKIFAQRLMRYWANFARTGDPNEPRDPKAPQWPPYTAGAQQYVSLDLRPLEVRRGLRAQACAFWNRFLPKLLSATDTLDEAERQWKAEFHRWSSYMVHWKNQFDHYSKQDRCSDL

**Q.** For O=C(COc1ccc2occ(C(=O)c3ccc(Cl)cc3)c2c1)Nc1ccccc1, which IC50 [1] is on record?
**A.** 1.26 µM

**Q.** What about the IC50 [2] of the same molecule?
**A.** 0.961 µM

**Q.** What about the IC50 [3] of the same molecule?
**A.** 153 µg/mL (≈ 377 µM)

**Q.** Which IC50 [3] does the source give for O=C1O[C@H]([C@@H](O)CO)C(O)=C1O [ASCORBIC ACID] here?
**A.** 2.85 µg/mL (≈ 16.2 µM)

**Q.** Which results are given for O=C(COc1ccc(O)c(-c2cn[nH]c2-c2ccccc2)c1)Nc1ccc(Cl)cc1?
**A.** IC50 [2]: 40.5 µM; IC50 [3]: 2.59 µg/mL (≈ 6.17 µM)

**Q.** Which results are given for Cc1ccc(NC(=O)COc2ccc3occ(C(=O)c4ccc(Cl)cc4)c3c2)cc1?
**A.** IC50 [2]: 11.9 µM; IC50 [3]: 375 µg/mL (≈ 893 µM)

**Q.** With Cc1ccc(NC(=O)COc2ccc3occ(C(=O)c4ccccc4)c3c2)cc1 as the molecule, how does the IC50 [2] read?
**A.** 21.4 µM

**Q.** What about the IC50 [3] of the same molecule?
**A.** 262 µg/mL (≈ 680 µM)

**Q.** With Cc1ccc(C(=O)c2coc3ccc(OCC(=O)Nc4ccccc4)cc23)cc1 as the molecule, how does the IC50 [1] read?
**A.** 18.6 µM

**Q.** What about the IC50 [2] of the same molecule?
**A.** 3.22 µM

**Q.** What about the IC50 [3] of the same molecule?
**A.** 363 µg/mL (≈ 942 µM)

**Q.** Which IC50 [2] does the source give for O=C(COc1ccc(O)c(-c2cn[nH]c2-c2ccc(Cl)cc2)c1)Nc1ccccc1 here?
**A.** 13.7 µM

**Q.** What about the IC50 [3] of the same molecule?
**A.** 5.87 µg/mL (≈ 14 µM)

**Q.** With O=C(COc1ccc(O)c(-c2cn[nH]c2-c2ccc(Cl)cc2)c1)Nc1ccc(Cl)cc1 as the molecule, how does the IC50 [2] read?
**A.** 119 µM

**Q.** And the IC50 [3]?
**A.** 3.18 µg/mL (≈ 7 µM)

**Q.** What does the source list for Cc1ccc(C(=O)c2coc3ccc(OCC(=O)Nc4ccc(Cl)cc4)cc23)cc1?
**A.** IC50 [2]: 52 µM; IC50 [3]: 732 µg/mL (≈ 1740 µM)

**Q.** For O=C(COc1ccc(O)c(-c2cn[nH]c2-c2ccccc2)c1)Nc1ccccc1, which IC50 [2] is on record?
**A.** 50.2 µM

**Q.** And the IC50 [3]?
**A.** 3.07 µg/mL (≈ 7.97 µM)

**Q.** What does the source list for O=C(COc1ccc2occ(C(=O)c3ccccc3)c2c1)Nc1ccc(Cl)cc1?
**A.** IC50 [2]: 40.6 µM; IC50 [3]: 132 µg/mL (≈ 325 µM)

**Q.** Which results are given for Cc1ccc(NC(=O)COc2ccc(O)c(-c3cn[nH]c3-c3ccccc3)c2)cc1?
**A.** IC50 [2]: 29.3 µM; IC50 [3]: 9.93 µg/mL (≈ 24.9 µM)

**Q.** Which IC50 [2] does the source give for Cc1ccc(NC(=O)COc2ccc(O)c(-c3cn[nH]c3-c3ccc(Cl)cc3)c2)cc1 here?
**A.** 43.4 µM

**Q.** What about the IC50 [3] of the same molecule?
**A.** 4.94 µg/mL (≈ 11.4 µM)

**Q.** Which IC50 [1] does the source give for Cc1ccc(NC(=O)COc2ccc(O)c(-c3cn[nH]c3-c3ccc(C)cc3)c2)cc1 here?
**A.** 8.63 µM

**Q.** And the IC50 [2]?
**A.** 4.76 µM

**Q.** And the IC50 [3]?
**A.** 4.26 µg/mL (≈ 10.3 µM)

**Q.** For Cc1ccc(-c2[nH]ncc2-c2cc(OCC(=O)Nc3ccccc3)ccc2O)cc1, which IC50 [2] is on record?
**A.** 40.8 µM

**Q.** What about the IC50 [3] of the same molecule?
**A.** 3.24 µg/mL (≈ 8.11 µM)

**Q.** For Cc1ccc(-c2[nH]ncc2-c2cc(OCC(=O)Nc3ccc(Cl)cc3)ccc2O)cc1, which inhibition [4] is on record?
**A.** Active

**Q.** What about the Activity [5] of the same molecule?
**A.** 38.32%

**Q.** What about the Activity [6] of the same molecule?
**A.** 137.33 U/L

**Q.** What about the IC50 [1] of the same molecule?
**A.** 4.26 µM

**Q.** And the Activity [7]?
**A.** Non-toxic

**Q.** What about the Activity [8] of the same molecule?
**A.** 76.11 U/L

**Q.** And the Activity [9]?
**A.** 30.25 mg/dL

**Q.** And the Activity [10]?
**A.** Non-toxic

**Q.** What about the Activity [11] of the same molecule?
**A.** Toxic

**Q.** And the Activity [12]?
**A.** 16.64%

**Q.** And the Activity [13]?
**A.** Non-toxic

**Q.** And the IC50 [2]?
**A.** 2.86 µM

**Q.** What about the Activity [14] of the same molecule?
**A.** Non-toxic

**Q.** And the IC50 [3]?
**A.** 3.15 µg/mL (≈ 7.26 µM)

**Q.** And the Activity [15]?
**A.** 19.51 pg

**Q.** What about the Activity [16] of the same molecule?
**A.** 6.91 fL

**Q.** What about the Activity [17] of the same molecule?
**A.** 7.14 10^6/mm3

**Q.** What about the Activity [18] of the same molecule?
**A.** 13.28 g/dL

**Q.** And the Activity [19]?
**A.** 0.69 mg/dL

**Q.** What about the Activity [20] of the same molecule?
**A.** 42.97 U/L

**Q.** What about the Activity [21] of the same molecule?
**A.** 0.63 mg/dL

**Q.** And the Activity [22]?
**A.** 4.86 10^3/mm3

**Q.** What about the Activity [23] of the same molecule?
**A.** 3.31 g/dL

**Q.** What about the Activity [24] of the same molecule?
**A.** 60.31 fL

**Q.** And the Activity [25]?
**A.** 32.59 g/dL

**Q.** Which results are given for Cc1ccc(NC(=O)COc2ccc3occ(C(=O)c4ccc(C)cc4)c3c2)cc1?
**A.** IC50 [2]: 59.3 µM; IC50 [3]: 240 µg/mL (≈ 601 µM)

**Q.** What does the source list for O=C(COc1ccc2occ(C(=O)c3ccccc3)c2c1)Nc1ccccc1?
**A.** IC50 [1]: 3.39 µM; IC50 [2]: 2.07 µM; IC50 [3]: 587 µg/mL (≈ 1580 µM)

**Q.** Which IC50 [2] does the source give for O=C(COc1ccc2occ(C(=O)c3ccc(Cl)cc3)c2c1)Nc1ccc(Cl)cc1 here?
**A.** 18.1 µM

**Q.** What about the IC50 [3] of the same molecule?
**A.** 630 µg/mL (≈ 1430 µM)
